Experimental findings from PMC11207111, “Assessment of the Activity of Nitroisoxazole Derivatives against Trypanosoma cruzi” (Molecules, 2024) are described below.

Usually melting point stands for the temperature, or range, at which the solid turns liquid. What is called IC50 is the concentration needed to halve the response being measured.

The test system of data set [1] is epimastigote of T. cruzi Dm28. The data set is described as follows: Trypanocidal activity (MTT) on epimastigotes. Format: cell-based. The following applies: Trypanosoma cruzi, 100 µM, 24 h, n.a = not active, read-out: % T. cruzi Epimastigote (trypanocidal effect). On the procedure:
As a preliminary step, a study of nitroisoxazole derivatives on the epimastigote form of T. cruzi was performed. Despite the epimastigote form not being a clinical form present in mammals, its easy handling has allowed screening for the trypanocidal activity of various compounds. It is worth noting that, during the intracellular life cycle of the parasite, a form similar to the epimastigote, which is biochemically and morphologically identical to the form present in the vector, has been described. […] RPMI 1640 medium) for 24 h. […] The effects of the compounds on trypomastigote and Vero cell viability were evaluated by tetrazolium salt reduction assay (MTT). […] The plates were kept overnight at 37 °C (28 °C for epimastigotes), and the optical density (OD) was determined using a 96-well microplate reader (Vantaa, Finland) at 570 nm. Under these conditions, the OD is directly proportional to each well’s viable number of cells. The experiments were performed in triplicate across three different assays.

Data set [2] can be described thus: ORAC-FL antioxidant capacity. The conditions noted are these: relative to Trolox; phosphate buffer 75 mM, pH 7.4, 37 °C. The protocol:
To corroborate the generation of the nitro radical, the antioxidant capacity of the series under study was determined by ORAC-FL methodology, employing a fluorescent probe to capture oxygen-centered radicals (Table 2). The ORAC-FL values of the studied compounds are close to the reference value of Trolox, indicating a low antioxidant capacity. For compounds (1-3), the presence of amino substituents decreases antioxidant activity due to their […] characteristics, preventing the presence of labile hydrogens. […] Compounds 4 and 10 present similar ORAC indexes as aromatic rings with high electron density insert the transfer of labile protons. Antioxidant capacity was determined using the ORAC-fluorescence methodology (ORAC-FL). The analysis used a 96-well white polystyrene plate reader (EnSpire multimode PerkinElmer, Waltham, MA, USA). The reaction was carried out in phosphate buffer (75 mM, pH 7.4). […] A blank with FL and AAPH, using dimethyl sulfoxide instead of the antioxidant solution, was used in each assay. […] The inhibitor capacity was expressed as ORAC-FL values and quantified by integrating the area under the curve (AUCNET). All reaction mixtures were prepared in triplicate, and at least three independent assays were performed for each sample. The area under the fluorescence decay curve (AUC) was calculated by integrating the fluorescence decay where F0 is the initial fluorescence read at 0 min, and F is the fluorescence read at the time. The AUCNET corresponding to the sample was calculated by subtracting the AUC corresponding to the blank. Data were processed using Origin […].5 SR2 (San Francisco, CA, USA). The ORAC-FL indices were calculated according to the following Equation (1): (1) ORAC-[…]]

Data set [3] can be described thus: Cyclic voltammetry (reduction of the nitro group). Type of data set: physicochemical. Set-up: key to −EpcI / −EpcII / −EpaII / −EpaI: potentials in V vs Ag/AgCl; |ΔEp|: unit not given here. The source says:
The chemistry mechanism of reduction in nitroisoxazole derivatives was investigated using cyclic voltammetry.
The peak near −1.32 V corresponds to a quasi-reversible one-electron transfer, according to the criteria of Nicholson–Shain [26] (Table 1), attributable to the species −NO2/NO2.− . The latter species stable anion radical at room temperature. […] An irreversible peak at −0.93 V to the mono-electronic transfer −HNO2/HNO2.− is observed, coupled with a chemical reaction associated with […] of the formed radical. This was evidenced by the addition of NaOH (1 M), which caused a decrease in the Ic peak (Figure 2c).
As previously described, an irreversible signal assigned to hydroxylamine oxidation to a nitroso derivative is also observed for N-acylhydrazones organometallic compounds with a pendant 5-nitrofuryl group. […] Compound 7, which has the least negative reduction potential, can be attributed to introducing a nitro group in the para position of the nitroisoxazole ring. This effect can also be observed in derivatives containing halogens in the same position.
Electrochemical characterization of the new compounds was performed through cyclic voltammetry (CV) on a 693 VA Metrohm instrument (Tokyo, Japan) equipped with a 694 VA Stand converter and 693 VA processor. Potentials were recorded against the Ag/AgCl reference electrode; a hanging drop of mercury (HDME) was used as a working electrode, and platinum was used as an auxiliary electrode. Tetrabutylammonium perchlorate (TBAP, 0.1 M) in DMSO was used as a supporting electrolyte under an N2 atmosphere at room temperature. Using Nicholson´s procedure, the Ipa/Ipc values (RNO2/RNO2^−) were measured from each cyclic voltammogram with a scan rate between 0.1 and 2.5 V/s.

Data set [4] deals with trypomastigote of T. cruzi Dm28. The data set is described as follows: Trypanocidal activity (MTT) on trypomastigotes. Type of data set: cell-based. The conditions noted are these: Trypanosoma cruzi; for killing at 100 µM: 24 h, n.a = not active, read-out: % T. cruzi Trypomastigote (trypanocidal effect). The protocol:
As a preliminary step, a study of nitroisoxazole derivatives on the epimastigote form of T. cruzi was performed. Despite the epimastigote form not being a clinical form present in mammals, its easy handling has allowed screening for the trypanocidal activity of various compounds. It is worth noting that, during the intracellular life cycle of the parasite, a form similar to the epimastigote, which is biochemically and morphologically identical to the form present in the vector, has been described. […] This is consistent with studies by Fonseca-Berzal et al. […] Additionally, compounds with higher activity have aromatic rings as substituents for nitroisoxazoles, confirming what was described Do […] [40]. […] It has also been determined that the presence of an isoxazole is essential for activity, as its aromatic structure contains a weak nitrogen-oxygen bond that, under different reaction conditions, can undergo ring cleavage, increasing activity. The results obtained on epimastigotes cannot be conclusive for determining potential Chagas agents, so conducting studies on the infective, extracellular, non-replicative trypomastigote form of T. cruzi present in humans is essential. […] RPMI 1640 medium) for 24 h. […] The effects of the compounds on trypomastigote and Vero cell viability were evaluated by tetrazolium salt reduction assay (MTT). […] The plates were kept overnight at 37 °C (28 °C for epimastigotes), and the optical density (OD) was determined using a 96-well microplate reader (Vantaa, Finland) at 570 nm. Under these conditions, the OD is directly proportional to each well's viable number of cells. The experiments were performed in triplicate across three different assays.

Data set [5] has as its system Vero mammalian cells. In words: Cytotoxicity (MTT) on Vero cells. Format: cell-based. The conditions noted are these: Chlorocebus sabaeus, 24 h. On the procedure: Additionally, the cytotoxicity of the compounds on VERO mammalian cells was assessed (Table 4). […] It is observed that the majority of the derivatives present considerable cytotoxicity. […] RPMI 1640 medium) for 24 h. […] The effects of the compounds on trypomastigote and Vero cell viability were evaluated by tetrazolium salt reduction assay (MTT). […] The plates were kept overnight at 37 °C (28 °C for epimastigotes), and the optical density (OD) was determined using a 96-well microplate reader (Vantaa, Finland) at 570 nm. Under these conditions, the OD is directly proportional to each well’s viable number of cells. The experiments were performed in triplicate across three different assays.

Where [6] appears, read: cyclic voltammetry at 2.0 V/s, DMSO, 0.1 M TBAP, vs Ag/AgCl.

The compound `Cc1noc(/C=C/N(C)C)c1[N+](=O)[O-]` [Compound 1, (E)-N,N-Dimethyl-2-(3-methyl-4-nitroisoxazol-5-yl)ethen-1-amine] yielded a melting point of 154 to 156 °C. Also, the killing at 100 µM in data set [1] was determined as 18 ± 1%. Besides, the “ORAC-FL Index” value in data set [2] came to 0.9 ± 0.2. For the same compound, in data set [3] (cyclic voltammetry at 2.0 V/s), the Ipa/Ipc was −0.44 and the “|ΔEp|” value came to 140. Besides, in data set [3] (setting [6]), the “−EpaII” value was 1.19 and the “−EpcII” value was 1.33.
For `Cc1noc(/C=C/N2CCCC2)c1[N+](=O)[O-]` [Compound 2, (E)-3-Methyl-4-nitro-5-(2-(pyrrolidin-1-yl)vinyl)isoxazole], the melting point lay in the range of 145 to 147 °C. Moreover, the killing at 100 µM in data set [1] is 19 ± 3%. Moreover, the “ORAC-FL Index” value in data set [2] was determined as 0.14 ± 0.05. Besides, in data set [3] (cyclic voltammetry at 2.0 V/s), the Ipa/Ipc stood at 0.32 and the “|ΔEp|” value is given as 120. Moreover, in data set [3] (setting [6]), the “−EpaII” value came to 1.20 and the “−EpcII” value is on record as 1.32. Besides, the “peak potential, quasi-reversible one-electron transfer −NO2/NO2.−” value in data set [3] (cyclic voltammogram, Figure 2a) is roughly −1.32 V.
In the case of `Cc1noc(/C=C/c2ccccc2)c1[N+](=O)[O-]` [Compound 4, (E)-3-Methyl-4-nitro-5-styrylisoxazole], the melting point was in the range of 176 to 178 °C. Further, in data set [1], the killing at 100 µM stood at 47 ± 4%. Moreover, the “ORAC-FL Index” value in data set [2] was found to be 0.33 ± 0.06. Also, in data set [4], the killing at 100 µM was determined as 0%. Besides, in data set [3] (cyclic voltammetry at 2.0 V/s), the Ipa/Ipc is −0.09 and the “|ΔEp|” value was 90. In data set [3] (setting [6]), the “−EpaII” value was determined as 0.80 and the “−EpcII” value came out at 0.89.
Take `Cc1noc(/C=C/c2ccc(C(F)(F)F)cc2)c1[N+](=O)[O-]` [Compound 6, (E)-3-Methyl-4-nitro-5-(4-(trifluoromethyl)styryl)isoxazole]: the melting point lay in the range of 187 to 189 °C. Also, the killing at 100 µM in data set [1] worked out at 28 ± 2%. Moreover, in data set [2], the “ORAC-FL Index” value was 0.8 ± 0.1. In data set [3] (setting [6]), the “−EpcII” value turned out to be 0.74.
In turn, `Cc1noc(/C=C/c2ccc([N+](=O)[O-])cc2)c1[N+](=O)[O-]` [Compound 7, (E)-3-Methyl-4-nitro-5-(4-nitrostyryl)isoxazole] came in with a melting point of 225 to 227 °C. Besides, the killing at 100 µM in data set [1] was determined as 36 ± 2%. Moreover, the “ORAC-FL Index” value in data set [2] is 0.57 ± 0.08. Besides, in data set [3] (cyclic voltammetry at 2.0 V/s), the Ipa/Ipc is −0.44 and the “|ΔEp|” value was 70. In data set [3] (setting [6]), the “−EpaII” value is reported as 0.64 and the “−EpcII” value is 0.71.
In the case of `Cc1noc(/C=C/c2ccco2)c1[N+](=O)[O-]` [Compound 10, (E)-5-(2-(Furan-2-yl)vinyl)-3-methyl-4-nitroisoxazole], the melting point is 145 to 147 °C. The killing at 100 µM in data set [1] is 42 ± 2%. The “ORAC-FL Index” value in data set [2] was 0.36 ± 0.07. In data set [3] (cyclic voltammetry at 2.0 V/s), the Ipa/Ipc is −0.16 and the “|ΔEp|” value stood at 100. Besides, in data set [3] (setting [6]), the “−EpaII” value amounted to 0.74 and the “−EpcII” value stood at 0.84.
Consider `Cc1ccc(-n2cc(/C=C/c3onc(C)c3[N+](=O)[O-])c3ccccc32)cc1` [Compound 14, (E)-3-Methyl-4-nitro-5-(2-(1-(p-tolyl)-1H-indol-3-yl)vinyl)isoxazole], for which the melting point lay in the range of 208 to 211 °C. In data set [1], the killing at 100 µM was 27 ± 2%. Also, the “ORAC-FL Index” value in data set [2] was 0.4 ± 0.1. Moreover, the killing at 100 µM in data set [4] stood at 3 ± 1%. In data set [3] (cyclic voltammetry at 2.0 V/s), the Ipa/Ipc is −0.32 and the “|ΔEp|” value stood at 120. Besides, in data set [3] (setting [6]), the “−EpaII” value amounted to 0.84, the “−EpcI” value amounted to 0.72 and the “−EpcII” value is given as 0.96.
In turn, `Cc1noc(/C=C/c2ccccc2Br)c1[N+](=O)[O-]` [Compound 15, (E)-5-(2-Bromostyryl)-3-methyl-4-nitroisoxazole] registered a melting point of 169 to 172 °C. Further, in data set [1], the killing at 100 µM came out at 29 ± 2%. Also, the “ORAC-FL Index” value in data set [2] was 0.8 ± 0.3. Moreover, in data set [3] (cyclic voltammetry at 2.0 V/s), the Ipa/Ipc is reported as −0.14 and the “|ΔEp|” value is 100. Besides, in data set [3] (setting [6]), the “−EpaI” value is 0.70, the “−EpaII” value was found to be 0.95, the “−EpcI” value is given as 0.80 and the “−EpcII” value worked out at 1.10.
Regarding `Cc1noc(C)c1[N+](=O)[O-]` [Compound P1, 3,5-dimethyl-4-nitroisoxazole], in data set [1], the killing at 100 µM turned out to be 14 ± 3%.
In the case of `O=CCc1ccc(Br)cc1` [Compound P2, 4-bromophenyl acetaldehyde], the killing at 100 µM in data set [1] came out at 5 ± 2%.
Regarding `CC1CS(=O)(=O)CCN1/N=C/c1ccc([N+](=O)[O-])o1` (stereo not drawn) [Nfx, nifurtimox, reference compound], the IC50 stood at 172.9 ± 0.1 µM in data set [5] and 10.04 ± 0.1 µM in data set [4] (T. cruzi Dm28, 24 h). In addition, the killing at 100 µM in data set [1] came out at 98.9 ± 0.3%; in data set [4], 74 ± 1%.
For `Cc1c(C)c2c(c(C)c1O)CCC(C)(C(=O)O)O2` (stereo not drawn) [Trolox, reference compound], in data set [2], the “ORAC-FL Index” value stood at 1.00 ± 0.01.
